Experimental data as given in patent publication US20230085307A1, “PYRIDAZINONE COMPOUND AND HERBICIDE” (NISSAN CHEMICAL CORPORATION, priority 2019, published 2023).

Experiments:
windgrass [1] = experiment: Test Example 5: herbicidal effect by foliage application, plastic box (Table 20, symbol L); format: in vivo, windgrass (Apera spica-venti); details: foliage application, 320 g/ha, three weeks after application
Outline: (§1)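 Foliar spray test: emulsion formulation diluted in water to a set application rate, sprayed onto 14-day-old plants raised in diluvial soil at 25° C to 30° C under glass. Both herbicidal effect and crop effect rated visually three weeks later.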

Italian ryegrass [2] = experiment: Test Example 4: herbicidal effect by soil treatment (Table 19, symbol K); format: in vivo, Italian ryegrass (Lolium multiflorum); details: amount of applied herbicide 320 g/ha
Outline: (§2)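 Step 1: sow seeds in sterilized diluvial soil, cover ~1.5 cm. Step 2: spray diluted emulsion onto soil surface at predetermined rate. Step 3: greenhouse, 25–30° C, three weeks. Step 4: grade effect on each plant by earlier criteria.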

barnyard grass [3] = experiment: Test Example 4: herbicidal effect by soil treatment (Table 19, symbol H); format: in vivo, barnyard grass (Echinochloa crus-galli); details: amount of applied herbicide 320 g/ha
Outline: as §2

Italian ryegrass [4] = experiment: Test Example 5: herbicidal effect by foliage application, plastic box (Table 20, symbol K); format: in vivo, Italian ryegrass (Lolium multiflorum); details: foliage application, 320 g/ha, three weeks after application
Outline: as §1

southern crabgrass [5] = experiment: Test Example 4: herbicidal effect by soil treatment (Table 19, symbol F); format: in vivo, southern crabgrass (Digitaria ciliaris); details: amount of applied herbicide 320 g/ha
Outline: as §2

barnyard grass [6] = experiment: Test Example 3: herbicidal effect by foliage application, Wagner pot (Table 18, symbol H); format: in vivo, barnyard grass (Echinochloa crus-galli); details: 320 g/ha
Outline: (§3)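 Plants were sown in alluvial soil held under 0.1–0.5 cm standing water and grown 14 days in a greenhouse at 25–30 °C. An emulsifiable formulation, water-diluted to the set dose, was then sprayed onto the foliage, and effects were scored three weeks later using previously defined criteria.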

persian speedwell [7] = experiment: Test Example 5: herbicidal effect by foliage application, plastic box (Table 20, symbol R); format: in vivo, Persian speedwell (Veronica persica); details: foliage application, 320 g/ha, three weeks after application
Outline: as §1

false cleavers [8] = experiment: Test Example 4: herbicidal effect by soil treatment (Table 19, symbol Q); format: in vivo, false cleavers (Galium spurium); details: amount of applied herbicide 320 g/ha
Outline: as §2

green foxtail [9] = experiment: Test Example 5: herbicidal effect by foliage application, plastic box (Table 20, symbol G); format: in vivo, green foxtail (Setaria viridis); details: foliage application, 320 g/ha, three weeks after application
Outline: as §1

velvetleaf [10] = experiment: Test Example 5: herbicidal effect by foliage application, plastic box (Table 20, symbol M); format: in vivo, velvetleaf (Abutilon theophrasti); details: foliage application, 320 g/ha, three weeks after application
Outline: as §1

wild oat [11] = experiment: Test Example 4: herbicidal effect by soil treatment (Table 19, symbol I); format: in vivo, wild oat (Avena fatua); details: amount of applied herbicide 320 g/ha
Outline: as §2

chickweed [12] = experiment: Test Example 4: herbicidal effect by soil treatment (Table 19, symbol P); format: in vivo, common chickweed (Stellaria media); details: amount of applied herbicide 320 g/ha
Outline: as §2

lambsquarters [13] = experiment: Test Example 5: herbicidal effect by foliage application, plastic box (Table 20, symbol O); format: in vivo, lambsquarters (Chenopodium album); details: foliage application, 320 g/ha, three weeks after application
Outline: as §1

blackgrass [14] = experiment: Test Example 4: herbicidal effect by soil treatment (Table 19, symbol J); format: in vivo, blackgrass (Alopecurus myosuroides); details: amount of applied herbicide 320 g/ha
Outline: as §2

chickweed [15] = experiment: Test Example 5: herbicidal effect by foliage application, plastic box (Table 20, symbol P); format: in vivo, common chickweed (Stellaria media); details: foliage application, 320 g/ha, three weeks after application
Outline: as §1

velvetleaf [16] = experiment: Test Example 4: herbicidal effect by soil treatment (Table 19, symbol M); format: in vivo, velvetleaf (Abutilon theophrasti); details: amount of applied herbicide 320 g/ha
Outline: as §2

persian speedwell [17] = experiment: Test Example 4: herbicidal effect by soil treatment (Table 19, symbol R); format: in vivo, Persian speedwell (Veronica persica); details: amount of applied herbicide 320 g/ha
Outline: as §2

green foxtail [18] = experiment: Test Example 4: herbicidal effect by soil treatment (Table 19, symbol G); format: in vivo, green foxtail (Setaria viridis); details: amount of applied herbicide 320 g/ha
Outline: as §2

blackgrass [19] = experiment: Test Example 5: herbicidal effect by foliage application, plastic box (Table 20, symbol J); format: in vivo, blackgrass (Alopecurus myosuroides); details: foliage application, 320 g/ha, three weeks after application
Outline: as §1

windgrass [20] = experiment: Test Example 4: herbicidal effect by soil treatment (Table 19, symbol L); format: in vivo, windgrass (Apera spica-venti); details: amount of applied herbicide 320 g/ha
Outline: as §2

wild oat [21] = experiment: Test Example 5: herbicidal effect by foliage application, plastic box (Table 20, symbol I); format: in vivo, wild oat (Avena fatua); details: foliage application, 320 g/ha, three weeks after application
Outline: as §1

barnyard grass [22] = experiment: Test Example 5: herbicidal effect by foliage application, plastic box (Table 20, symbol H); format: in vivo, barnyard grass (Echinochloa crus-galli); details: foliage application, 320 g/ha, three weeks after application
Outline: as §1

redroot pigweed [23] = experiment: Test Example 5: herbicidal effect by foliage application, plastic box (Table 20, symbol N); format: in vivo, redroot pigweed (Amaranthus retroflexus); details: foliage application, 320 g/ha, three weeks after application
Outline: as §1

false cleavers [24] = experiment: Test Example 5: herbicidal effect by foliage application, plastic box (Table 20, symbol Q); format: in vivo, false cleavers (Galium spurium); details: foliage application, 320 g/ha, three weeks after application
Outline: as §1

lambsquarters [25] = experiment: Test Example 4: herbicidal effect by soil treatment (Table 19, symbol O); format: in vivo, lambsquarters (Chenopodium album); details: amount of applied herbicide 320 g/ha
Outline: as §2

Chinese sprangletop = experiment: Test Example 3: herbicidal effect by foliage application, Wagner pot (Table 18, symbol D); format: in vivo, chinese sprangletop (Leptochloa chinensis); details: 320 g/ha
Outline: as §3

redroot pigweed [26] = experiment: Test Example 4: herbicidal effect by soil treatment (Table 19, symbol N); format: in vivo, redroot pigweed (Amaranthus retroflexus); details: amount of applied herbicide 320 g/ha
Outline: as §2

rice flat sedge = experiment: Test Example 3: herbicidal effect by foliage application, Wagner pot (Table 18, symbol E); format: in vivo, rice flat sedge (Cyperus iria); details: 320 g/ha
Outline: as §3

southern crabgrass [27] = experiment: Test Example 5: herbicidal effect by foliage application, plastic box (Table 20, symbol F); format: in vivo, southern crabgrass (Digitaria ciliaris); details: foliage application, 320 g/ha, three weeks after application
Outline: as §1

SMILES	L: windgrass, herbicidal effect grade (windgrass [1])	K: Italian ryegrass, herbicidal effect grade (Italian ryegrass [2])	H: barnyard grass, herbicidal effect grade (barnyard grass [3])	K: Italian ryegrass, herbicidal effect grade (Italian ryegrass [4])	F: southern crabgrass, herbicidal effect grade (southern crabgrass [5])	herbicidal effect on barnyard grass (H) (barnyard grass [6])	R: persian speedwell, herbicidal effect grade (persian speedwell [7])	Q: false cleavers, herbicidal effect grade (false cleavers [8])	G: green foxtail, herbicidal effect grade (green foxtail [9])	M: velvetleaf, herbicidal effect grade (velvetleaf [10])	I: wild oat, herbicidal effect grade (wild oat [11])	P: chickweed, herbicidal effect grade (chickweed [12])	O: lambsquarters, herbicidal effect grade (lambsquarters [13])	J: blackgrass, herbicidal effect grade (blackgrass [14])	P: chickweed, herbicidal effect grade (chickweed [15])	M: velvetleaf, herbicidal effect grade (velvetleaf [16])	R: persian speedwell, herbicidal effect grade (persian speedwell [17])	G: green foxtail, herbicidal effect grade (green foxtail [18])	J: blackgrass, herbicidal effect grade (blackgrass [19])	L: windgrass, herbicidal effect grade (windgrass [20])	also measured
CCCC(=O)Oc1c(C)nn(C)c(=O)c1-c1c(-c2ccc(OC(C)C)cc2)sc2cc(Cl)ccc12 [3-042]	0 (Herbicidal rate of 5% or less (almost no effect))	0 (Herbicidal rate of 5% or less (almost no effect))	0 (Herbicidal rate of 5% or less (almost no effect))	0 (Herbicidal rate of 5% or less (almost no effect))	0 (Herbicidal rate of 5% or less (almost no effect))	4 (Herbicidal rate of 70% or more and less than 90%)	0 (Herbicidal rate of 5% or less (almost no effect))	0 (Herbicidal rate of 5% or less (almost no effect))	0 (Herbicidal rate of 5% or less (almost no effect))	3 (Herbicidal rate of 40% or more and less than 70%)	0 (Herbicidal rate of 5% or less (almost no effect))	0 (Herbicidal rate of 5% or less (almost no effect))	3 (Herbicidal rate of 40% or more and less than 70%)	0 (Herbicidal rate of 5% or less (almost no effect))	0 (Herbicidal rate of 5% or less (almost no effect))	0 (Herbicidal rate of 5% or less (almost no effect))	0 (Herbicidal rate of 5% or less (almost no effect))	0 (Herbicidal rate of 5% or less (almost no effect))	0 (Herbicidal rate of 5% or less (almost no effect))	0 (Herbicidal rate of 5% or less (almost no effect))	I: wild oat, herbicidal effect grade (wild oat [21]): 0 (Herbicidal rate of 5% or less (almost no effect)); H: barnyard grass, herbicidal effect grade (barnyard grass [22]): 0 (Herbicidal rate of 5% or less (almost no effect)); N: redroot pigweed, herbicidal effect grade (redroot pigweed [23]): 3 (Herbicidal rate of 40% or more and less than 70%); Q: false cleavers, herbicidal effect grade (false cleavers [24]): 0 (Herbicidal rate of 5% or less (almost no effect)); O: lambsquarters, herbicidal effect grade (lambsquarters [25]): 0 (Herbicidal rate of 5% or less (almost no effect)); herbicidal effect on Chinese sprangletop (D) (Chinese sprangletop): 0 (Herbicidal rate of 5% or less (almost no effect)); N: redroot pigweed, herbicidal effect grade (redroot pigweed [26]): 3 (Herbicidal rate of 40% or more and less than 70%); herbicidal effect on rice flat sedge (E) (rice flat sedge): 3 (Herbicidal rate of 40% or more and less than 70%); F: southern crabgrass, herbicidal effect grade (southern crabgrass [27]): 0 (Herbicidal rate of 5% or less (almost no effect))
COc1ccc(-c2sc3cc(C)ccc3c2-c2c(O)c(C)nn(C)c2=O)cc1 [3-051]	0 (Herbicidal rate of 5% or less (almost no effect))	0 (Herbicidal rate of 5% or less (almost no effect))	0 (Herbicidal rate of 5% or less (almost no effect))	1 (Herbicidal rate of 5% or more and less than 20%)	0 (Herbicidal rate of 5% or less (almost no effect))	1 (Herbicidal rate of 5% or more and less than 20%)	5 (Herbicidal rate of 90% or more (almost completely withered))	0 (Herbicidal rate of 5% or less (almost no effect))	0 (Herbicidal rate of 5% or less (almost no effect))	0 (Herbicidal rate of 5% or less (almost no effect))	0 (Herbicidal rate of 5% or less (almost no effect))	0 (Herbicidal rate of 5% or less (almost no effect))	0 (Herbicidal rate of 5% or less (almost no effect))	0 (Herbicidal rate of 5% or less (almost no effect))	4 (Herbicidal rate of 70% or more and less than 90%)	0 (Herbicidal rate of 5% or less (almost no effect))	4 (Herbicidal rate of 70% or more and less than 90%)	0 (Herbicidal rate of 5% or less (almost no effect))	0 (Herbicidal rate of 5% or less (almost no effect))	0 (Herbicidal rate of 5% or less (almost no effect))	I: wild oat, herbicidal effect grade (wild oat [21]): 0 (Herbicidal rate of 5% or less (almost no effect)); H: barnyard grass, herbicidal effect grade (barnyard grass [22]): 0 (Herbicidal rate of 5% or less (almost no effect)); N: redroot pigweed, herbicidal effect grade (redroot pigweed [23]): 0 (Herbicidal rate of 5% or less (almost no effect)); Q: false cleavers, herbicidal effect grade (false cleavers [24]): 0 (Herbicidal rate of 5% or less (almost no effect)); O: lambsquarters, herbicidal effect grade (lambsquarters [25]): 0 (Herbicidal rate of 5% or less (almost no effect)); herbicidal effect on Chinese sprangletop (D) (Chinese sprangletop): 0 (Herbicidal rate of 5% or less (almost no effect)); N: redroot pigweed, herbicidal effect grade (redroot pigweed [26]): 0 (Herbicidal rate of 5% or less (almost no effect)); herbicidal effect on rice flat sedge (E) (rice flat sedge): 3 (Herbicidal rate of 40% or more and less than 70%); F: southern crabgrass, herbicidal effect grade (southern crabgrass [27]): 0 (Herbicidal rate of 5% or less (almost no effect))
